Data taken from PubChem BioAssay AID1259411 (Chemical Carcinogenesis Research Information System (CCRIS), 2018).
The source made the active and inactive calls. The rule behind the calls is not given here.

Tested on: rodent carcinogenicity bioassays, tumor incidence
Assay: CCRIS carcinogenicity studies
Method in brief: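 Archive of carcinogenicity, mutagenicity, tumor promotion and tumor inhibition results drawn from journals, NCI reports and other sources, expert-reviewed; covers 1985-2011 and is no longer updated.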

Measured: carcinogen call

CCN(CC)N=O
active: Species: DOG, Route: ORAL, Tumor Site: Type of Lesion: LIVER active; positive | Species: FISH, Route: ORAL, Tumor Site: Type of Lesion: LIVER active; positive | Species: FISH, Strain/Sex: GUPPY POECILIA RETICULATA/MALE, FEMALE, Route: IMMERSION, Dose: 0, 29.4 MG/L IN WATER FOR 28 D (STUDY DURATION: 6 MONTHS), Tumor Site: Type of Lesion: LIVER: MULTIFOCAL HEPATOMA, CHOLANGIOMA active; positive | Species: FISH, Strain/Sex: MEDAKA/MALE,FEMALE, Route: IMMERSION, Dose: 0, 390 PPM IN AQUEOUS BATH FOR 48 HR (STUDY DURATION: 7 MO), Tumor Site: Type of Lesion: LIVER: TUMOR active; positive | Species: FISH, Strain/Sex: SHASTA RAINBOW TROUT/FEMALE, Route: ORAL, Dose: 0, 4, 70, 275, 550, 1100 PPM IN DIET FOR 12 MO (STUDY DURATION: 18 MO), Dose: 0, 4, 70, 275, 550, 1100 PPM IN DIET FOR 12 MO (STUDY DURATION: 18 MO), Tumor Site: Type of Lesion: LIVER: TUMOR active; positive | Species: FISH, Strain/Sex: SHASTA RAINBOW TROUT/MALE, Route: ORAL, Dose: 0, 4, 70, 275, 550, 1100 PPM IN DIET FOR 12 MO (STUDY DURATION: 18 MO), Dose: 0, 4, 70, 275, 550, 1100 PPM IN DIET FOR 12 MO (STUDY DURATION: 18 MO), Tumor Site: Type of Lesion: LIVER: TUMOR active; positive | Species: GUINEA PIG, Route: ORAL, SUBCUTANEOUS, Tumor Site: Type of Lesion: LIVER active; positive | Species: HAMSTER, Route: DERMAL, Tumor Site: Type of Lesion: NASAL CAVITY active; positive | Species: HAMSTER, Route: INHALATION, Tumor Site: Type of Lesion: TRACHEA, LUNG active; positive | Species: HAMSTER, Route: INTRAPERITONEAL, Tumor Site: Type of Lesion: TRACHEA, NASAL CAVITY, BRONCHI, LIVER, Tumor Site: Type of Lesion: TRACHEA, NASAL CAVITY, BRONCHI, LIVER active; positive | Species: HAMSTER, Route: ORAL, Tumor Site: Type of Lesion: TRACHEA, LUNG, NASAL CAVITY, BRONCHI, LIVER, FORESTOMACH, ESOPHAGUS, Tumor Site: Type of Lesion: TRACHEA, LUNG, NASAL CAVITY, BRONCHI, LIVER, FORESTOMACH, ESOPHAGUS active; positive | Species: HAMSTER, Route: SUBCUTANEOUS, Tumor Site: Type of Lesion: NASAL CAVITY, BRONCHI, TRACHEA, LUNG, LIVER, FORESTOMACH, ESOPHAGUS, Tumor Site: Type of Lesion: NASAL CAVITY, BRONCHI, TRACHEA, LUNG, LIVER, FORESTOMACH, ESOPHAGUS active; positive | Species: HAMSTER, Strain/Sex: SYRIAN/FEMALE, Route: INTRATRACHEAL, Dose: 0, 1 MG IN 0.1 ML PHOSPHATE BUFFER 15/WK FOR 4 MO (STUDY DURATION: 237 D), Tumor Site: Type of Lesion: LUNG: ADENOMA OR CARCINOMA, TRACHEA: PAPILLOMA active; positive | Species: HAMSTER, Strain/Sex: SYRIAN/MALE, Route: INTRATRACHEAL, Dose: 0, 0.1, 0.5 MG IN PHOSPHATE BUFFER 1/WK FOR 15 WK (TOTAL DOSE; 1.5; 7.5 MG) (STUDY DURATION: LIFESPAN), Dose: 0, 0.1, 0.5 MG IN PHOSPHATE BUFFER 1/WK FOR 15 WK (TOTAL DOSE; 1.5; 7.5 MG) (STUDY DURATION: LIFESPAN), Tumor Site: Type of Lesion: TRACHEA: PAPILLOMA, LUNG: ADENOMA, SQUAMOUS CARCINOMA, ADENOCARCINOMA, LIVER: HEPATOCELLULAR CARCINOMA, Tumor Site: Type of Lesion: TRACHEA: PAPILLOMA, LUNG: ADENOMA, SQUAMOUS CARCINOMA, ADENOCARCINOMA, LIVER: HEPATOCELLULAR CARCINOMA active; positive | Species: MONKEY, Route: ORAL, INTRAPERITONEAL, Tumor Site: Type of Lesion: LIVER active; positive | Species: MOUSE, Route: DERMAL, Tumor Site: Type of Lesion: NASAL CAVITY active; positive | Species: MOUSE, Route: ORAL, Tumor Site: Type of Lesion: LIVER, ESOPHAGUS, LUNG, FORESTOMACH, Tumor Site: Type of Lesion: LIVER, ESOPHAGUS, LUNG, FORESTOMACH active; positive | Species: MOUSE, Route: SUBCUTANEOUS, INTRAPERITONEAL, Tumor Site: Type of Lesion: LUNG active; positive | Species: MOUSE, Strain/Sex: AKR/MALE, Route: ORAL, Dose: 0, 100 PPM IN DRINKING WATER FOR DURATION OF STUDY (STUDY DURATION: 150 D), Tumor Site: Type of Lesion: LUNG: TUMOR active; positive | Species: MOUSE, Strain/Sex: B6C3F1/FEMALE, Route: INTRAPERITONEAL, Dose: 0, 1.5, 3 UG IN 0.01 ML TRIOCTANOIN/G BW INITIAL DOSE GIVEN ON DAY 1 OF AGE AND 3 SUBSEQUENT DOSES GIVEN 3, 9 AND 15 DAY, Dose: 0, 1.5, 3 UG IN 0.01 ML TRIOCTANOIN/G BW INITIAL DOSE GIVEN ON DAY 1 OF AGE AND 3 SUBSEQUENT DOSES GIVEN 3, 9 AND 15 DAY, Tumor Site: Type of Lesion: LIVER: ADENOMA, CARCINOMA, LUNG: TUMORS active; positive | Species: MOUSE, Strain/Sex: B6C3F1/FEMALE, Route: INTRAPERITONEAL, Dose: 0, 1.5, 3 UG IN 0.01 ML TRIOCTANOIN/G BW INITIAL DOSE GIVEN ON DAY 15 OF AGE AND 3 SUBSEQUENT DOSES GIVEN 3, 9 AND 15 DA, Dose: 0, 1.5, 3 UG IN 0.01 ML TRIOCTANOIN/G BW INITIAL DOSE GIVEN ON DAY 15 OF AGE AND 3 SUBSEQUENT DOSES GIVEN 3, 9 AND 15 DA, Tumor Site: Type of Lesion: LIVER: ADENOMA, CARCINOMA, LUNG: TUMORS active; positive | Species: MOUSE, Strain/Sex: B6C3F1/FEMALE, Route: INTRAPERITONEAL, Dose: 0, 1.5, 3 UG IN 0.01 ML TRIOCTANOIN/G BW INITIAL DOSE GIVEN ON DAY 42 OF AGE AND 3 SUBSEQUENT DOSES GIVEN 3, 9 AND 15 DA, Dose: 0, 1.5, 3 UG IN 0.01 ML TRIOCTANOIN/G BW INITIAL DOSE GIVEN ON DAY 42 OF AGE AND 3 SUBSEQUENT DOSES GIVEN 3, 9 AND 15 DA, Tumor Site: Type of Lesion: LIVER: ADENOMA, CARCINOMA, LUNG: TUMORS active; positive | Species: MOUSE, Strain/Sex: B6C3F1/MALE, Route: INTRAPERITONEAL, Dose: 0, 0.02, 0.07 UMOL/G BW IN 10 µL/G BW TRIOCTANOIN ONCE AT 12 D OF AGE (STUDY DURATION: 9 MO), Dose: 0, 0.02, 0.07 UMOL/G BW IN 10 µL/G BW TRIOCTANOIN ONCE AT 12 D OF AGE (STUDY DURATION: 9 MO), Tumor Site: Type of Lesion: LIVER: HEPATOMA active; positive | Species: MOUSE, Strain/Sex: B6C3F1/MALE, Route: INTRAPERITONEAL, Dose: 0, 1.5, 3 UG IN 0.01 ML TRIOCTANOIN/G BW INITIAL DOSE GIVEN ON DAY 1 OF AGE AND 3 SUBSEQUENT DOSES GIVEN 3, 9 AND 15 DAY, Dose: 0, 1.5, 3 UG IN 0.01 ML TRIOCTANOIN/G BW INITIAL DOSE GIVEN ON DAY 1 OF AGE AND 3 SUBSEQUENT DOSES GIVEN 3, 9 AND 15 DAY, Tumor Site: Type of Lesion: LIVER: ADENOMA, CARCINOMA, LUNG: TUMORS active; positive | Species: MOUSE, Strain/Sex: B6C3F1/MALE, Route: INTRAPERITONEAL, Dose: 0, 1.5, 3 UG IN 0.01 ML TRIOCTANOIN/G BW INITIAL DOSE GIVEN ON DAY 15 OF AGE AND 3 SUBSEQUENT DOSES GIVEN 3, 9 AND 15 DA, Dose: 0, 1.5, 3 UG IN 0.01 ML TRIOCTANOIN/G BW INITIAL DOSE GIVEN ON DAY 15 OF AGE AND 3 SUBSEQUENT DOSES GIVEN 3, 9 AND 15 DA, Tumor Site: Type of Lesion: LIVER: ADENOMA, CARCINOMA, LUNG: TUMORS active; positive | Species: MOUSE, Strain/Sex: B6C3F1/MALE, Route: INTRAPERITONEAL, Dose: 0, 1.5, 3 UG IN 0.01 ML TRIOCTANOIN/G BW INITIAL DOSE GIVEN ON DAY 42 OF AGE AND 3 SUBSEQUENT DOSES GIVEN 3, 9 AND 15 DA, Dose: 0, 1.5, 3 UG IN 0.01 ML TRIOCTANOIN/G BW INITIAL DOSE GIVEN ON DAY 42 OF AGE AND 3 SUBSEQUENT DOSES GIVEN 3, 9 AND 15 DA, Tumor Site: Type of Lesion: LIVER: ADENOMA, CARCINOMA, LUNG: TUMORS active; positive
